Seven compounds from ChEMBL document CHEMBL1155890, “Synthesis of scyllo-inositol derivatives and their effects on amyloid beta peptide aggregation” (Bioorg Med Chem, 2008) can be followed below.

Assay [1] in a line: Effect on amyloid beta 42 aggregation assessed as inhibition of fiber formation at 5 mM.
Assay [2] can be described thus: Effect on amyloid beta 42 aggregation assessed as inhibition of fiber formation at 3 mM.

The source made the active and inactive calls. The calls are words filed in the database; no cut-off is given here.

In the case of `O[C@@H]1[C@@H](O)[C@H](O)[C@@H](Cl)[C@H](O)[C@H]1O`, the result in assay [1] was inactive.
The same measure, in the same setting: the result for `O[C@@H]1[C@@H](O)[C@H](F)[C@@H](O)[C@H](O)[C@H]1F` reads “inactive”.
Regarding `O[C@H]1[C@H](O)[C@@H](O)[C@H](O)[C@@H](O)[C@@H]1O`, in assay [2], the outcome was Active.
Turning to `O[C@@H]1[C@@H](O)[C@H](O)C[C@H](O)[C@H]1O`, the outcome in assay [1] was inactive.
In the case of `O[C@@H]1[C@@H](O)[C@H](Cl)[C@@H](O)[C@H](O)[C@H]1Cl`, in assay [1], the outcome was inactive.
Turning to `CO[C@H]1[C@H](O)[C@@H](O)[C@H](O)[C@@H](O)[C@@H]1O`, the outcome in assay [1] was inactive.
Same read-out and setting: in the case of `O[C@@H]1C[C@H](O)[C@@H](O)C[C@H]1O` it was “inactive”.
